Reference: ChEMBL document CHEMBL5042508, “Structures and Biological Activities of Polyacylated ent-Kaurane Diterpenoid Glycosides from the Aerial Parts of Inula hupehensis” (J Nat Prod, 2022)

Tests used:
[1] = Inhibition of Saccharomyces cerevisiae alpha-glucosidase using pNPG as substrate assessed as release of p-nitrophenol preincubated for 18 mins followed by substrate addition and measured after 30 mins by colorimetric method
[2] = test system: BV-2; assay: Antineuroinflammatory activity against mouse BV-2 cells assessed as inhibition of LPS-induced NO production by Griess assay; format: functional, cell-based
[3] = test system: BV-2; assay: Cytotoxicity against mouse BV2 cells assessed as reduction in cell viability by MTT assay; format: toxicity, cell-based

Structure (SMILES)	IC50 [1]	IC50 [2]	Activity [3]
C=C1[C@@H]2CC[C@H]3[C@]4(C)C[C@H](O[C@@H]5O[C@H](CO)[C@@H](OC(C)=O)[C@H](O[C@@H]6OC[C@H](OC(C)=O)[C@H](O)[C@H]6O)[C@H]5OC(=O)CC(C)C)C[C@@H](C(=O)O)[C@H]4CC[C@]3(C2)[C@H]1O	537 µM	–	–
C=C1[C@@H]2CC[C@H]3[C@]4(C)C[C@H](O[C@@H]5O[C@H](CO)[C@@H](O)[C@H](O[C@@H]6OC[C@H](OC(C)=O)[C@H](O)[C@H]6OC(C)=O)[C@H]5OC(=O)CC(C)C)C[C@@H](C(=O)O)[C@H]4CC[C@]3(C2)[C@H]1O	373 µM	–	–
C[C@H]1O[C@H](O[C@H]2[C@H](O)[C@@H](O)[C@@H](O[C@H]3[C@H](O)[C@@H](O)C(O)O[C@@H]3CO)O[C@@H]2CO)[C@H](O)[C@@H](O)[C@@H]1N[C@H]1C=C(CO)[C@@H](O)[C@H](O)[C@H]1O (some centres not stated) [ACARBOSE]	388 µM	–	–
CNC(=N)NCCC[C@H](N)C(=O)O [TILARGININE]	–	31.8 µM	–
C=C1[C@@H]2CC[C@H]3[C@]4(C)C[C@H](O[C@@H]5O[C@H](CO)[C@@H](O)[C@H](OC(C)=O)[C@H]5OC(=O)CC(C)C)CC(C(=O)O)(C(=O)O)[C@H]4CC[C@]3(C2)[C@H]1O	32.8 µM	–	–
C=C1[C@@H]2CC[C@H]3[C@]4(C)C[C@H](O[C@@H]5O[C@H](COC(C)=O)[C@@H](OC(C)=O)[C@H](O[C@@H]6OC[C@H](O)[C@H](O)[C@H]6O)[C@H]5OC(=O)CC(C)C)C[C@@H](C(=O)O)[C@H]4CC[C@]3(C2)[C@H]1O	–	15.6 µM	Non-Toxic
